Experimental data as given in patent US7166622B2, “Substituted phenylsulfonamide inhibitors of beta amyloid production” (Wyeth, priority 2002, dated 2007).

Key:
[1] = system: CHO-K1 cells; experiment: Toxicity in RRA (loss of luciferase signal); settings: toxicity = loss of signal (<0.75 fold increase)
Method: The beta amyloid inhibitory activity of the compounds of the present invention was determined using the Repressor Release Assay (RRA).
“Fold Increase” refers to the amount of luciferase activity (measured in relative light units) over diluent control. “SEM” refers to the standard error of the mean for fold increase.

[2] = system: beta amyloid production; experiment: Repressor Release Assay (RRA); type: cell-based; settings: for fold induction at 10 µg/mL / APPI Fold Increase / APPI % of Example #98: Conc 10 μg/ml; for APPI % of Example #98: relative to Example 98
In short: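 CHO-K1 cells transiently co-transfected with pRSVO-luc and an APP-lacI construct, replated, then treated in duplicate for 36-48 h at 37 °C, 5% CO2. Compounds diluted in 25 mM Hepes, with Hepes/1% DMSO as diluent control. Luciferase read-out in relative light units; toxicity scored 1 non-toxic, 0 toxic.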

[3] = luciferase activity over diluent control, read-out: APPI Fold Increase
[4] = luciferase activity over diluent control

| Compound | (%)APPI Toxicity ([1]; Conc 10 μg/ml) | fold induction at 10 µg/mL [2, 3] | APPI Fold Increase [2, 4] | APPI % of Example #98 [2] | (%)APPI Toxicity ([1]; Conc 3 μg/ml) | fold induction at 3 µg/mL ([2]; Conc 3 μg/ml, luciferase activity over diluent control, read-out: APPI Fold Increase) |
| --- | --- | --- | --- | --- | --- | --- |
| CC[C@H](C)[C@H](NS(=O)(=O)c1cccc(Cl)c1)C(O)(c1ccccc1)c1ccccc1 [Example 253, 3-chloro-N-{(1S,2S)-1-[hydroxy(diphenyl)methyl]-2-methylbutyl}benzenesulfonamide] | 1 (1=non-toxic) | 1.61 | – | – | – | – |
| C=CCC(O)(CC=C)[C@@H](NS(=O)(=O)c1cccc(Cl)c1)[C@@H](C)CC [Example 254, N-{(1S)-2-allyl-2-hydroxy-1-[(1S)-1-methylpropyl]-4-pentenyl}-3-chloro benzenesulfonamide] | 1 (1=non-toxic) | – | 1.93 fold | 71.92% | – | – |
| CC[C@H](C)[C@H](NS(=O)(=O)c1cccc(Cl)c1)C(O)(CC)CC [Example 255, 3-chloro-N-{(1S)-2-ethyl-2-hydroxy-1-[(1S)-1-methylpropyl]butyl}benzenesulfonamide] | 1 (1=non-toxic) | 2.03 | – | – | – | – |
| CC[C@H](C)[C@H](NS(=O)(=O)c1cccc(Cl)c1)C(O)(c1ccc(Cl)cc1)c1ccc(Cl)cc1 [Example 256, N-{(1S,2S)-1-[bis(4-chlorophenyl)(hydroxy)methyl]-2-methylbutyl}-3-chloro benzenesulfonamide] | 1 (1=non-toxic) | – | 1.5 fold | 55.91% | – | – |
| CC[C@H](C)[C@H](NS(=O)(=O)c1cccc(Cl)c1)C(O)(c1ccc(OC)cc1)c1ccc(OC)cc1 [Example 258, 3-chloro-N-((1S,2S)-1-{hydroxy [bis(4-methoxyphenyl)]methyl}-2-methylbutyl)benzenesulfonamide] | 1 (1=non-toxic) | 1.72 | – | – | – | – |
| C=CCCC(O)(CCC=C)[C@@H](NS(=O)(=O)c1cccc(Cl)c1)[C@@H](C)CC [Example 260, N-{(1S)-2-(3-butenyl)-2-hydroxy-1-[(1S)-1-methylpropyl]-5-hexenyl}-3-chlorobenzenesulfonamide] | 1 (1=non-toxic) | 6.23 | – | – | 1 (1=non-toxic) | 1.5 |
| CCCCCCC(O)(CCCCCC)[C@@H](NS(=O)(=O)c1ccccc1F)[C@@H](C)CC [Example 261, 2-fluoro-N-{(1S)-2-hexyl-2-hydroxy-1-[(18)-1-methylpropyl]octyl}benzenesulfonamide] | 1 (1=non-toxic) | – | 3.5 fold | 104.4% | – | – |
| CCCCCC(O)(CCCCC)[C@@H](NS(=O)(=O)c1ccccc1F)[C@@H](C)CC [Example 262, 2-fluoro-N-{(1S)-2-hydroxy-1-[(1S)-1-methylpropyl]-2-pentylheptyl}benzenesulfonamide] | 1 (1=non-toxic) | 2.2 | – | – | – | – |
| CC[C@H](C)[C@H](NS(=O)(=O)c1ccccc1F)C(O)(c1ccccc1)c1ccccc1 [Example 263, 2-fluoro-N-{(1S,2 S)-1-[hydroxy (diphenyl)methyl]-2-methylbutyl}benzenesulfonamide] | 1 (1=non-toxic) | 1.57 | – | – | – | – |
| C=CCC(O)(CC=C)[C@@H](NS(=O)(=O)c1ccccc1F)[C@@H](C)CC [Example 264, N-{(1S)-2-allyl-2-hydroxy-1-[(1S)-1-methylpropyl]-4-pentenyl}-2-fluorobenzenesulfonamide] | 1 (1=non-toxic) | 2 | – | – | – | – |
| CC[C@H](C)[C@H](NS(=O)(=O)c1ccccc1F)C(O)(CC)CC [Example 265, N-{(1S)-2-ethyl-2-hydroxy-1-[(1S)-1-methylpropyl]butyl}-2-fluorobenzenesulfonamide] | 1 (1=non-toxic) | 1.78 | – | – | – | – |
| CC[C@H](C)[C@H](NS(=O)(=O)c1ccccc1F)C(O)(c1ccc(F)cc1)c1ccc(F)cc1 [Example 266, N-{(1S,2S)-1-[bis(4-fluorophenyl)(hydroxy)methyl]-2-methylbutyl}-2-fluorobenzenesulfonamide] | 1 (1=non-toxic) | 1.57 | – | – | – | – |
